From US20230391760A1, “HETEROCYCLIC GLP-1 AGONISTS” (Gasherbrum Bio, Inc., priority 2020, published 2023)

What follows are compounds tested against GLP-1 Receptor (Homo sapiens, UniProt P43220) (assay: GLP-1R agonist cAMP stimulation assay (HEK293/GLP1R/CRE-LUC cells, cAMP dynamic 2 Kit)). Settings: HEK293/CRE-Luc cell line stably expressing the GLP-1 Receptor, 30 min at 37° C.
Type: cell-based
Procedure, shortened: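 cAMP measured by HTRF competition (d2-labelled cAMP with cryptate antibody, 1 h, room temperature, protected from light). Before that, GLP1R/CRE-Luc HEK293 cells (1000/well) were exposed for 30 min at 37 °C to half-log compound dilutions in DPBS containing IBMX 0.5 mM and BSA 0.1%.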

GLP-1 Receptor, sequence (P43220 24-463, species assumed): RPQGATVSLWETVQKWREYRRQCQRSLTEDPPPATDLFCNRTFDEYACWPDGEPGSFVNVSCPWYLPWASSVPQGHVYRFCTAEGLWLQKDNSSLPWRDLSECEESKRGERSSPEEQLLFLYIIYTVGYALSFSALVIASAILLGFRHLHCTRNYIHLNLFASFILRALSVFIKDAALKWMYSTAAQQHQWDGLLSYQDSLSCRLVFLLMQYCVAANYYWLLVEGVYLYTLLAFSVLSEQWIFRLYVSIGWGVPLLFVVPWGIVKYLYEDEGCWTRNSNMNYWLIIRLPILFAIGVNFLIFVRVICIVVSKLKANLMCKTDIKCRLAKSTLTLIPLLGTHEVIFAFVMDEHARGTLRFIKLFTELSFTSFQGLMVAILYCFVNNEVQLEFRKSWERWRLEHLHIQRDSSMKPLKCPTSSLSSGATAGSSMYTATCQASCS

In order of falling EC50:
1. CC1(c2ccc(Cl)cc2F)Oc2cccc(C3CCN(Cc4nc5cc(-c6noc(=O)[nH]6)cnc5n4C[C@H]4CCCO4)CC3)c2O1 (stereo partly drawn) [Compound 399a, 3-[2-({4-[2-(4-chloro-2-fluorophenyl)-2-methyl-2H-1,3-benzodioxol-4-yl]piperidin-1-yl}methyl)-3-{[(2R)-oxolan-2-yl]methyl}-3H-imidazo[4,5-b]pyridin-6-yl]-4,5-dihydro-1,2,4-oxadiazol-5-one]  17 nM
2. O=C(Nc1ccc2c(c1)nc(CN1CCC(c3cccc(OCc4ccc(Cl)cc4F)n3)CC1)n2C[C@@H]1CCO1)C1(C2CC2)CCCO1 (stereo partly drawn) [Compound 199a, N-{2-[(4-{6-[(4-chloro-2-fluorophenyl)methoxy]pyridin-2-yl}piperidin-1-yl)methyl]-1-{[(2S)-oxetan-2-yl]methyl}-1H-1,3-benzodiazol-5-yl}-2-cyclopropyloxolane-2-carboxamide]  7.4 nM
3. O=C(O)Cc1ccc2c(c1)nc(CN1CC=C(c3cccc(OCc4ccc(Cl)cc4F)n3)CC1)n2C[C@@H]1CCO1 [Compound 112a, (S)-2-(2-((6-((4-chloro-2-fluorobenzyl)oxy)-3′,6′-dihydro-[2,4′-bipyridin]-1′(2′H)-yl)methyl)-1-(oxetan-2-ylmethyl)-1H-benzo[d]imidazol-5-yl)acetic acid]  6.35 nM
4. Cc1cn(-c2ccc3c(c2)nc(CN2CCC(c4cccc(OCc5ccc(Cl)cc5F)n4)CC2)n3C[C@@H]2CCO2)nn1 [Compound 210a, 2-[(4-{6-[(4-chloro-2-fluorophenyl)methoxy]pyridin-2-yl}piperidin-1-yl)methyl]-5-(4-methyl-1H-1,2,3-triazol-1-yl)-1-{[(2S)-oxetan-2-yl]methyl}-1H-1,3-benzodiazole]  4.2 nM
5. Fc1cc(Cl)ccc1COc1cccc(C2CCN(Cc3nc4cc(-c5ccn[nH]5)ccc4n3C[C@@H]3CCO3)CC2)n1 [Compound 215a, 2-[(4-{6-[(4-chloro-2-fluorophenyl)methoxy]pyridin-2-yl}piperidin-1-yl)methyl]-1-{[(2S)-oxetan-2-yl]methyl}-5-(1H-pyrazol-5-yl)-1H-1,3-benzodiazole]  2.7 nM
6. O=C(O)c1ccc2c(c1)nc(CN1CCC(c3cccc(OCc4ccc(Cl)cc4F)n3)CC1)n2C[C@@H]1CCO1 [Compound 213a, 2-[(4-{6-[(4-chloro-2-fluorophenyl)methoxy]pyridin-2-yl}piperidin-1-yl)methyl]-1-{[(2S)-oxetan-2-yl]methyl}-1H-1,3-benzodiazole-5-carboxylic acid]  0.83 nM
7. COCCn1c(CN2CCC(c3cccc4c3OC(C)(c3ccc(Cl)cc3F)O4)CC2)nc2cc(-c3nnc(C(F)(F)F)[nH]3)cnc21 (stereo not shown) [Compound 402, 4-[2-(4-chloro-2-fluorophenyl)-2-methyl-2H-1,3-benzodioxol-4-yl]-1-{[3-(2-methoxyethyl)-6-[5-(trifluoromethyl)-4H-1,2,4-triazol-3-yl]-3H-imidazo[4,5-b]pyridin-2-yl]methyl}piperidine]  0.75 nM
8. CC1(c2ccc(Cl)cn2)Oc2c(F)ccc(C3CCN(Cc4nc5cc(-c6nnc(C(F)(F)F)[nH]6)nnc5n4C[C@@H]4CCO4)CC3)c2O1 (stereo partly drawn) [Compound 524a, 5-chloro-2-[4-fluoro-2-methyl-7-{1-[(7-{[(2S)-oxetan-2-yl]methyl}-3-[5-(trifluoromethyl)-4H-1,2,4-triazol-3-yl]-7H-imidazo[4,5-c]pyridazin-6-yl)methyl]piperidin-4-yl}-2H-1,3-benzodioxol-2-yl]pyridine]  0.45 nM
9. Fc1cc(Cl)ccc1COc1cc(C2CCN(Cc3nc4cc(-c5nnc(C(F)(F)F)[nH]5)nnc4n3C[C@@H]3CCO3)CC2)ccc1F [Compound 520a, 4-{3-[(4-chloro-2-fluorophenyl)methoxy]-4-fluorophenyl}-1-[(7-{[(2S)-oxetan-2-yl]methyl}-3-[5-(trifluoromethyl)-4H-1,2,4-triazol-3-yl]-7H-imidazo[4,5-c]pyridazin-6-yl)methyl]piperidine]  0.34 nM
10. CO[C@@H](C)Cn1c(CN2CCC(c3cccc4c3O[C@@](C)(c3ccc(C#N)cc3F)O4)CC2)nc2cc(-c3noc(=O)[nH]3)ncc21 [Compound 443a, 3-fluoro-4-[(2S)-4-[1-({3-[(2S)-2-methoxypropyl]-6-(5-oxo-4,5-dihydro-1,2,4-oxadiazol-3-yl)-3H-imidazo[4,5-c]pyridin-2-yl}methyl)piperidin-4-yl]-2-methyl-2H-1,3-benzodioxol-2-yl]benzonitrile]  0.28 nM
11. CC1(c2ccc(Cl)cc2F)Oc2cccc(C3CCN(Cc4nc5cc(-c6cn(CCO)nn6)ccc5n4C[C@@H]4CCO4)CC3)c2O1 (stereo partly drawn) [Compound 228a, 2-{4-[2-({4-[2-(4-chloro-2-fluorophenyl)-2-methyl-2H-1,3-benzodioxol-4-yl]piperidin-1-yl}methyl)-1-{[(2S)-oxetan-2-yl]methyl}-1H-1,3-benzodiazol-5-yl]-1H-1,2,3-triazol-1-yl}ethan-1-ol]  0.19 nM
12. O=C(Nc1ccc2c(c1)nc(CN1CCC(c3cccc(OCc4ccc(Cl)cc4F)n3)CC1)n2C[C@@H]1CCO1)c1ccccn1 [Compound 170a, N-{2-[(4-{6-[(4-chloro-2-fluorophenyl)methoxy]pyridin-2-yl}piperidin-1-yl)methyl]-1-{[(2S)-oxetan-2-yl]methyl}-1H-1,3-benzodiazol-5-yl}pyridine-2-carboxamide]  0.14 nM
13. CC1(c2ccc(Cl)cc2F)Oc2cccc(C3CCN(Cc4nc5cc(-c6nnc(C(F)F)[nH]6)cnc5n4C[C@@H]4CCO4)CC3)c2O1 (stereo partly drawn) [Compound 244a, 4-[2-(4-chloro-2-fluorophenyl)-2-methyl-2H-1,3-benzodioxol-4-yl]-1-({6-[5-(difluoromethyl)-4H-1,2,4-triazol-3-yl]-3-{[(2S)-oxetan-2-yl]methyl}-3H-imidazo[4,5-b]pyridin-2-yl}methyl)piperidine]  0.14 nM
14. CC1(c2ccc(Cl)cc2F)Oc2cccc(C3CCN(Cc4nc5cc(-c6nnc(C(F)(F)F)[nH]6)ccc5n4C[C@@H]4CCO4)CC3)c2O1 (mixture of isomers) [Compound 229a, 2-({4-[2-(4-chloro-2-fluorophenyl)-2-methyl-2H-1,3-benzodioxol-4-yl]piperidin-1-yl}methyl)-1-{[(2S)-oxetan-2-yl]methyl}-5-[5-(trifluoromethyl)-4H-1,2,4-triazol-3-yl]-1H-1,3-benzodiazole]  0.046 nM
15. CC1(c2ccc(Cl)cc2)Oc2cccc(C3CCN(Cc4nc5cc(-c6nnc(C(F)(F)F)[nH]6)ncc5n4C[C@@H]4CCO4)CC3)c2O1 (stereo partly drawn) [Compound 361a, 4-[2-(4-chlorophenyl)-2-methyl-2H-1,3-benzodioxol-4-yl]-1-[(3-{[(2S)-oxetan-2-yl]methyl}-6-[5-(trifluoromethyl)-4H-1,2,4-triazol-3-yl]-3H-imidazo[4,5-c]pyridin-2-yl)methyl]piperidine]  0.034 nM
16. N#Cc1ccc(COc2cccc(C3CCN(Cc4nc5cc(-c6nnc(C(F)(F)F)[nH]6)nnc5n4C[C@@H]4CCO4)CC3)n2)c(F)c1 [Compound 487a, 3-fluoro-4-{[(6-{1-[(7-{[(2S)-oxetan-2-yl]methyl}-3-[5-(trifluoromethyl)-4H-1,2,4-triazol-3-yl]-7H-imidazo[4,5-c]pyridazin-6-yl)methyl]piperidin-4-yl}pyridin-2-yl)oxy]methyl}benzonitrile]  0.029 nM
